Reference: patent publication US20260286302A1, “METHODS FOR PRODUCING A SUPER CENTRAL MEMORY CD8 T CELL SUBTYPE BY POLY(ADP-RIBOSE) POLYMERASE (PARP) INHIBITION AND USES THEREOF” (Georgetown University, priority 2023, published 2026)

Tests used:
[1] = system: TC-1; test: Tumor growth in immune deficient nude mice (TC-1); assay type: in vivo, mouse; conditions: TC-1 in immune deficient nude mice
Description: (§1) The effect of PARPi on direct CD8 T cell-driven anti-tumor immune response remains poorly understood. Therefore, to dissect this effect, the anti-tumor immune effect of PARPi was tested in vivo in tumor models that require T cell priming, which helps delineate the direct effect of the drug on CD8 T cells. […] While 18% and 10% of mice survived in the vaccine-treated and PARPi-treated groups, respectively, in the TC-1 tumor model at day 22, 90% survived when PARPi was added to the vaccine. Similarly, in the B16F10 tumor model, 10% of the mice treated with vaccine alone were alive at day 22, compared to 40% when PARPi was added.

[2] = system: B16F10; test: Tumor growth in immune deficient nude mice (B16F10); assay type: in vivo, mouse
Description: as §1

[3] = system: CD8+ T cells in TME of B16F10 tumors; test: Immune profiling of the TME, B16F10 tumor-bearing mice; assay type: in vivo, mouse
Description: Two-to-three days after the second vaccination, mice in the various groups were euthanized and tumors were collected.
(§2) A total of 0.1-0.2×10^6 cells per sample were stained for Live/Dead staining followed by fixation and permeabilization. For IFNγ and granzyme B (Gzm B) staining, BD Cytofix/Cytoperm (catalog no. 51-2090KZ) and BD Perm/Wash (catalog no. 51-2091KZ) buffer set were used according to the manufacturer's instructions (BD Pharmingen). CD8^+ T cells from tumor samples were stained similarly. Data acquisition was performed on a BD LSR II flow cytometer using the software FACS Diva v.9.0. Results were analyzed using FlowJo software (TreeStar). MitoFM, a green-fluorescent mitochondrial stain, which localizes to mitochondria, was used as described previously (Sukumar et al., Cell Metab 23 (1): 63-76, 2016).

[4] = system: human CD8 T cells; test: In vitro-activated human CD8+ T cells, memory characteristics; assay type: cell-based; conditions: anti-CD3/CD28 coupled beads for 72 h
Description: For evaluation of memory characteristics in human CD8+ T cells, naive CD8+ T cells were activated in the presence or absence of PARPi, by Dynabeads™ Human T-Activator CD3/CD28 (Thermo Fisher #11131), […]. Post-activation cells were gated upon CD8^+ T cell population and various characteristics were investigated as described in the Examples below.
as §2
To this end, human naïve CD8 T cells were activated with anti-CD3/CD28 coupled beads for 72 h.

[5] = system: pMel-1 CD8 T cells; test: Seahorse assays (OCR, ECAR); assay type: cell-based, mouse; conditions: PARPi-induced TCM^sup vs gp100-induced TCM
Description: CD8 T cells were activated with gp100 peptide with/without PARPi for 48 h, followed by mitochondrial stress tests (SeaHorse Bioscience), performed as per the manufacturer's specifications. OCR and ECAR were measured with an XFp flux analyzer (Seahorse Bioscience). For all assays, 160,000 cell per ml were plated onto culture plates using Cell-Tak (BD Biosciences). OCR and ECAR were measured in unbuffered DMEM (Agilent Biotechnologies) supplemented with 10 mM D-glucose (Sigma-Aldrich), 10 mM L-glutamine and 2.5 mM pyruvate, as indicated. The rates of FAO were determined in variously treated cells, as described above, using a Seahorse XF Palmitate-BSA FAO Reagent kit, used according to the manufacturer's instructions (Agilent Biotechnologies).

[6] = system: pMel-1 CD8 T cells; test: RNA-sequencing of gp100-activated pMel-1 CD8 T cells; assay type: cell-based, mouse
Description: Ribo-Zero Plus Kit from Illumina® was used for stranded Total RNA Prep Ligation. This protocol involves the removal of ribosomal RNA (rRNA) using biotinylated, target-specific oligos combined with Ribo-Zero rRNA removal beads. RNA was fragmented into small pieces and the cleaved RNA fragments were copied into first strand cDNA using reverse transcriptase and random primers, followed by second strand cDNA synthesis using DNA Polymerase I and RNase H. The resulting double-strand cDNA were used as the input to a standard Illumina library prep with end-repair, adapter ligation and PCR amplification being performed to give a sequencing ready library. The final purified product was then quantitated by qPCR before cluster generation and sequencing on NovaSeq 6000 instrument.

**Q.** Which results are given for `O=C(c1cc(Cc2n[nH]c(=O)c3ccccc23)ccc1F)N1CCN(C(=O)C2CC2)CC1` [olaparib]?
**A.** tumor growth [1]: did not affect tumor growth; tumor growth [2]: did not affect tumor growth; number of total and antigen-specific CD8+ T cells in TME ([3]; B16, vaccinated in the presence of PARPi vs either treatment alone): significant increase; IFNγ+ and granzyme B+ total and antigen-specific CD8+ T cells ([3]; B16F10, PARPi given with the vaccine): enhanced functionality; vaccine-induced central memory CD8 T cells in the TME ([3]; B16F10, PARPi with vaccine): increased; proliferation of CD8 T cells as determined by Ki67 expression ([3]; B16F10 TME): significant decrease; IFNγ expression [4]: significant increase; number of CD45ROhiCCR7hi cells [4]: significant increase; number of CD45ROhiCD62Lhi cells [4]: significant increase; extracellular acidification rate (ECAR; Glycolysis) [5]: decrease; oxygen consumption rate (OCR; OXPHOS) [5]: significant increase; genes related to OXPHOS and FAO (Acot1, Cpt1α) ([6]; PARPi-treated vs gp100, 48 h): significantly upregulated; genes related to the glycolysis pathway (Eno1, Aldoc, Pgk1, Gapdh) ([6]; PARPi-treated vs gp100, 48 h): significantly downregulated; expression of genes related to memory (Sell, Bcl2, Ccr7, Slpr1, Cd44, Tcf7, Klf2, Eomes) ([6]; after PARPi treatment, 48 h): significant increase
